# Experimental data as given in patent US20210062263A1, “A CLINICAL […]” (priority 2016, published 2021).
# Legend:
# activin A [1] = assay: Cutaneous activin A levels (ELISA) after wounding; assay type: in vivo, mice; details: testosterone replacement, day 3 post-wounding
# Excerpt: (§1) Under anesthesia, the dorsal flanks of each 9 weeks old mouse (n=6/group) were carefully shaved and cleansed with 70% v/v ethanol. To create wounds, full-thickness, parasagittal linear incisions (1 cm long) were made through the skin and underlying the panniculus carnosus muscle on each flank and each wound was closed using two 5/0 silk sutures placed 3 mm from each end of the wound. Post operatively, all animals received analgesia to minimize pain, were allowed to recover on a heated pad and then housed in groups of four animals per cage. Incisions were examined and assessed on days 3, 5, 7 and post-wounding.
# (§2) Following exsanguination, anesthetized animals were killed by cervical dislocation. Full-thickness specimens of the skin wound, consisting of the entire wound scar surrounded by a border of about 3-mm, were excized and bisected. Half of each sample was frozen at −80° C. and the other half was fixed in 4% v/v paraformaldehyde (Sigma-Aldrich, NSW, Australia) and processed for histology. Unwounded skin was obtained from the dorsum of the trunk near the tail of each animal to determine protein levels. […]
# Activin A levels were measured in serum and skin using a specific ELISA and human recombinant activin A as a standard, according to manufacturer's instructions (Oxford Bioinnovations, Cherwell, Oxfordshire, UK) [Knight et al. (1996) J Endocrinol 148(2):267-279]. […]
# follistatin [2] = assay: Serum follistatin levels (RIA) in wounded male mice; assay type: in vivo
# Protocol: (§3) Implants were prepared by cutting medical grade Silastic (polydimethylsiloxane) tubing (1.5 mm inner diameter, 2.3 mm outer diameter, Aunet Pty Ltd, WA, Australia) to the desired length (1 cm long) and sealing one end with Multi-Purpose Sealant (Dow Corning RTV Sealant). After 24 hours each tube was packed with either crystalline testosterone (Sigma #T-1500) or left empty (vehicle implant). The open end was then sealed and implants were allowed to dry for at least 24 hours prior to surgical implantation. The implant size was considered to be the length of tubing containing testosterone. Prior to subcutaneous insertion, implants were sterilized in absolute ethanol for 10 minutes which also removed any androgen adhering to its external surface. Each testosterone or vehicle implant was inserted subcutaneously via a 5-mm nape incision in intact and castrated male mice three weeks before the wound healing experiments and the incision site was closed with 5/0 sutures.
# as §1
# (§4) Blood samples were collected between 10:00 and 10:30 am by cardiac puncture at different time points (0d, 3d, 5d, 7d or 14d) according to the experimental protocol. The samples were allowed to coagulate for 30 minutes then centrifuged at 10,000 g for 10 minutes to collect serum which was stored at −20° C. until assayed.
# Serum and skin follistatin levels were measured by RIA using human recombinant follistatin 288 as standard and as tracer following labeling with I^125 (O'Conner et al. (1999) Hum Reprod 14(3):827-832). The assay sensitivity for serum follistatin was 1.52 ng/ml, and the intra-assay variation was 5.4-5.7%.
# IL-6 = assay: Cutaneous IL-6 levels (ELISA) after wounding; assay type: in vivo, mice
# Protocol: Frozen samples of wounded and unwounded skin were homogenized (Janke & Kunkel Ultraturrax T25 homogenizer, IKA Labortechnik, Staufen, Germany) in 1% v/v protease inhibitor (Calbiochem, San Diego, Calif.) and the homogenates were centrifuged at 4° C. to remove debris prior to assay.
# Cutaneous levels of IL-6 and TNF-α were measured in skin samples using ELISAs according to the manufacturer's instructions (R&D Systems Inc, MN, USA). The sensitivity of the IL-6 ELISA was 5.97 pg/ml; the intra-assay variation was of 3.4% and the inter-assay variation was 4.1%. Mouse recombinant was used as a standard for the TNF-α assay; the sensitivity of the ELISA was 9.04 pg/ml; the intra-assay variation was of 12.8% and the inter-assay variation was 12.7%. The concentrations are expressed per mg of tissue (wet weight).
# activin A [3] = assay: Serum activin A levels (ELISA) in wounded male mice; assay type: in vivo
# Protocol: as §3, §1, §4
# Activin A levels were measured in serum and skin using a specific ELISA and human recombinant activin A as a standard, according to manufacturer's instructions (Oxford Bioinnovations, Cherwell, Oxfordshire, UK) [Knight et al. (1996) J Endocrinol 148(2):267-279]. The assay sensitivity for serum activin A was 11 pg/ml, with an intra-assay variation of 4.6-7.5% and an inter-assay variation of 10.6%.
# dorsal skin wound = assay: Histopathological measurements of skin wounds; assay type: in vivo, mice
# Protocol: as §3, §1
# Following exsanguination, anesthetized animals were killed by cervical dislocation. Full-thickness specimens of the skin wound, consisting of the entire wound scar surrounded by a border of about 3-mm, were excized and bisected. Half of each sample was frozen at −80° C. and the other half was fixed in 4% v/v paraformaldehyde (Sigma-Aldrich, NSW, Australia) and processed for histology. Unwounded skin was obtained from the dorsum of the trunk near the tail of each animal to determine protein levels.
# Transverse histological sections (5 μm) of skin from the center of each wound were stained with hematoxylin and eosin (H&E) [Harris' Hematoxylin, 1% v/v Eosin, Amber Scientific, Midvale, Wash., Australia] and analyzed by light microscopy. All histological analyses were performed blind without knowledge of the identity of each specimen. Histological sections were scanned for assessment using Aperio ScanScope AT Turbo Scanner (Aperio, CA, USA) and the electronic slides (eSlides) were visualized and analyzed using Aperio ImageScope.
# Wound width was calculated by measuring the distance between the unwounded dermis margins at the epidermis-dermis junction (Gilliver et al. (2008) endocrinology 149(11):5747-5757). When the width was <0.2 mm, the wound was considered closed. Reepithelialization was assessed using the following scoring method: 0, absent; 1, present, covering <50% of the wound; 2, present, covering >50% and <100% of the wound; 3, present, covering 100% with irregular thickness; 4, present, covering 100% with regular thickness (Steed et al. (1997) 77(3):575-586). To determine epidermal hyperplasia, the mean distance between the stratum granulosum and the epidermal-dermal junction of each wound site was calculated (10 measurements per section, using a 10× objective). Unwounded skin was used as control.
# Sections from day 7 and day 14 wounds were also stained with Masson's trichrome to highlight connective tissue. The area of granulation tissue was measured by defining the area located between the basal surface of the epidermis and the panniculus carnosus below. Collagen orientation was assessed using the following scoring method: 1, basket-weave fibers; 2, basket-weave >parallel fibers; 3, parallel fibers >basket-weave fibers; 4, parallel fibers (Ashcroft and Mills (2002) J Clin Invest 110(5):615-624).
# follistatin [4] = assay: Cutaneous follistatin levels (RIA) after wounding; assay type: in vivo, mice
# Excerpt: as §1, §2
# Serum and skin follistatin levels were measured by RIA using human recombinant follistatin 288 as standard and as tracer following labeling with I^125 (O'Conner et al. (1999) Hum Reprod 14(3):827-832). […]
compound,measurement,setting,value
C[C@]12CC[C@H]3[C@@H](CCC4=CC(=O)CC[C@@]43C)[C@@H]1CC[C@@H]2O [testosterone],increase in cutaneous levels of activin A,activin A [1]; castrated males,17 fold
same,cutaneous levels of activin A relative to castrated males,activin A [1],twice
same,Serum Follistatin,"follistatin [2]; Castrated + T males, 0 d",4.3 ± 0.5 ng/mL
same,Serum Follistatin,"follistatin [2]; Castrated + T males, 3 d",4.1 ± 0.3 ng/mL
same,Serum Follistatin,"follistatin [2]; Castrated + T males, 5 d",3.9 ± 0.2 ng/mL
same,Serum Follistatin,"follistatin [2]; Castrated + T males, 7 d",4.5 ± 0.3 ng/mL
same,Serum Follistatin,"follistatin [2]; Castrated + T males, 14 d",4.5 ± 0.5 ng/mL
same,Serum Follistatin,"follistatin [2]; Intact + T males, 0 d",3.6 ± 0.03 ng/mL
same,Serum Follistatin,"follistatin [2]; Intact + T males, 3 d",3.8 ± 0.3 ng/mL
same,Serum Follistatin,"follistatin [2]; Intact + T males, 5 d",3.8 ± 0.1 ng/mL
same,Serum Follistatin,"follistatin [2]; Intact + T males, 7 d",3.8 ± 0.4 ng/mL
same,Serum Follistatin,"follistatin [2]; Intact + T males, 14 d",3.6 ± 0.2 ng/mL
same,cutaneous IL-6 relative to castrated group,"IL-6; castrated males, testosterone replacement, day 3 post-wounding",twice
same,cutaneous IL-6 relative to intact male group,"IL-6; intact males treated with testosterone, day 3 post-wounding",almost twice
same,basal IL-6 levels in skin,"IL-6; intact males treated with testosterone, unwounded skin",increased basal IL-6 levels
same,Serum Activin A,"activin A [3]; Castrated + T males, 0 d",80.2 ± 7.8 pg/mL
same,Serum Activin A,"activin A [3]; Castrated + T males, 3 d",65.4 ± 5.8 pg/mL
same,Serum Activin A,"activin A [3]; Castrated + T males, 5 d",54.9 ± 7.7 pg/mL
same,Serum Activin A,"activin A [3]; Castrated + T males, 7 d",83.8 ± 7.3 pg/mL
same,Serum Activin A,"activin A [3]; Castrated + T males, 14 d",93 ± 7.7 pg/mL
same,Serum Activin A,"activin A [3]; Intact + T males, 0 d",65.4 ± 6.8 pg/mL
same,Serum Activin A,"activin A [3]; Intact + T males, 3 d",85.2 ± 5 pg/mL
same,Serum Activin A,"activin A [3]; Intact + T males, 5 d",74.9 ± 6.9 pg/mL
same,Serum Activin A,"activin A [3]; Intact + T males, 7 d",92.1 ± 3.8 pg/mL
same,Serum Activin A,"activin A [3]; Intact + T males, 14 d",74.6 ± 3.5 pg/mL
same,serum activin levels (in words),"activin A [3]; castrated males, testosterone replacement vs castrated+Vh, days 3 and 5 post wounding",decreased serum activin levels
same,collagen fiber orientation,"dorsal skin wound; castrated males treated with testosterone, day 14 post-wounding",predominant parallel orientation
same,wound width,"dorsal skin wound; castrated males, testosterone replacement vs castrated group, days 3 and 5 post-wounding",significantly increased wound widths
same,re-epithelialization,"dorsal skin wound; castrated+T group, day 5 post-wounding",re-epithelialization was complete
same,epidermal thickness,"dorsal skin wound; castrated+T group, days 3, 5 and 7 post-wounding",increased thickness of the epidermis
same,wound width,"dorsal skin wound; intact males treated with testosterone vs intact group, day 3 post-wounding",decreased wound width
same,wound closure (summary),dorsal skin wound; male mice,delayed wound closure
same,follistatin levels in skin,"follistatin [4]; castrated testosterone replacement group vs vehicle group, day 3 post-wounding",significantly higher
same,follistatin levels in skin,follistatin [4]; intact males given testosterone vs intact males that received vehicle,significantly lower
